{"source": "ChEMBL document CHEMBL1201862", "about": "“PubChem BioAssay data set” (2004)", "assay_in_all_cases": "DTP human tumour cell line panel, 48 h", "key": {"CAKI-1": {"system": "CAKI-1"}, "CCRF-CEM": {"system": "CCRF-CEM"}, "COLO 205": {"system": "COLO 205"}, "DU-145": {"system": "DU-145"}, "HCT-15": {"system": "HCT-15"}, "HL-60": {"system": "HL-60"}, "HOP-92": {"system": "HOP-92"}, "Hs-578T": {"system": "Hs-578T"}, "IGROV-1": {"system": "IGROV-1"}, "K562": {"system": "K562"}, "LOX IMVI": {"system": "LOX IMVI"}, "NCI-H226": {"system": "NCI-H226"}, "RPMI-8226": {"system": "RPMI-8226"}, "RXF 393": {"system": "RXF 393"}, "SK-MEL-2": {"system": "SK-MEL-2"}, "SN12C": {"system": "SN12C"}, "SNB-19": {"system": "SNB-19"}, "TK-10": {"system": "TK-10"}, "UACC-257": {"system": "UACC-257"}}, "note": "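Growth conditions: 96-well plates. Treatment: test compound, 48 hours, 5 concentrations. Analysis: linear interpolation between bracketing concentrations; unreached endpoints set to highest concentration. GI50: concentration for 50% inhibition of growth.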 The source made the active and inactive calls. Cut-off read from the data, not from the text of the source: active = GI50 up to about 1.1 µM and inactive = higher."}
{"compound": "O=C(c1ccccc1)c1ccc2nc3n(c2c1)C(c1c(Cl)cccc1Cl)SC3", "note": "(centres undefined)", "values": [{"measurement": "GI50", "setting": "CAKI-1", "result": "3.44 µM (inactive)"}, {"measurement": "GI50", "setting": "CCRF-CEM", "result": "1.27 µM (inactive)"}, {"measurement": "GI50", "setting": "COLO 205", "result": "4.88 µM (inactive)"}, {"measurement": "GI50", "setting": "DU-145", "result": "13.5 µM (inactive)"}, {"measurement": "GI50", "setting": "HCT-15", "result": 3.35, "unit": "µM"}, {"measurement": "GI50", "setting": "HL-60", "result": "2.36 µM (inactive)"}, {"measurement": "GI50", "setting": "HOP-92", "result": "5.08 µM (inactive)"}, {"measurement": "GI50", "setting": "Hs-578T", "result": "3.67 µM (inactive)"}, {"measurement": "GI50", "setting": "IGROV-1", "result": "4.48 µM (inactive)"}, {"measurement": "GI50", "setting": "K562", "result": "3.12 µM (inactive)"}, {"measurement": "GI50", "setting": "LOX IMVI", "result": "3.85 µM (inactive)"}, {"measurement": "GI50", "setting": "NCI-H226", "result": "31.2 µM (inactive)"}, {"measurement": "GI50", "setting": "RPMI-8226", "result": "3.51 µM (inactive)"}, {"measurement": "GI50", "setting": "RXF 393", "result": "5.94 µM (inactive)"}, {"measurement": "GI50", "setting": "SK-MEL-2", "result": "8.02 µM (inactive)"}, {"measurement": "GI50", "setting": "SN12C", "result": "7.64 µM (inactive)"}, {"measurement": "GI50", "setting": "SNB-19", "result": "3.85 µM (inactive)"}, {"measurement": "GI50", "setting": "TK-10", "result": "25.2 µM (inactive)"}, {"measurement": "GI50", "setting": "UACC-257", "result": "13.6 µM (inactive)"}]}
{"compound": "N#CSc1[nH]cnc1C(N)=O", "values": [{"measurement": "GI50", "setting": "CAKI-1", "result": "> 44.4 µM (inactive)"}, {"measurement": "GI50", "setting": "CCRF-CEM", "result": "5.21 µM (inactive)"}, {"measurement": "GI50", "setting": "COLO 205", "result": "> 81.8 µM (inactive)"}, {"measurement": "GI50", "setting": "DU-145", "result": "> 100 µM (inactive)"}, {"measurement": "GI50", "setting": "HCT-15", "result": "> 100", "unit": "µM"}, {"measurement": "GI50", "setting": "HL-60", "result": "2.8 µM (inactive)"}, {"measurement": "GI50", "setting": "HOP-92", "result": "> 100 µM (inactive)"}, {"measurement": "GI50", "setting": "Hs-578T", "result": "> 100 µM (inactive)"}, {"measurement": "GI50", "setting": "IGROV-1", "result": "> 100 µM (inactive)"}, {"measurement": "GI50", "setting": "K562", "result": "20 µM (inactive)"}, {"measurement": "GI50", "setting": "LOX IMVI", "result": "41.3 µM (inactive)"}, {"measurement": "GI50", "setting": "NCI-H226", "result": "> 100 µM (inactive)"}, {"measurement": "GI50", "setting": "RPMI-8226", "result": "4.22 µM (inactive)"}, {"measurement": "GI50", "setting": "RXF 393", "result": "> 100 µM (inactive)"}, {"measurement": "GI50", "setting": "SK-MEL-2", "result": "> 100 µM (inactive)"}, {"measurement": "GI50", "setting": "SN12C", "result": "27.9 µM (inactive)"}, {"measurement": "GI50", "setting": "SNB-19", "result": "> 100 µM (inactive)"}, {"measurement": "GI50", "setting": "TK-10", "result": "> 100 µM (inactive)"}, {"measurement": "GI50", "setting": "UACC-257", "result": "> 100 µM (inactive)"}]}
{"compound": "COC(=O)[C@H](Cc1ccccc1)NC(=O)c1ccc(CNC(=O)/C=C/c2ccc(OCc3ccccc3)cc2)cc1", "values": [{"measurement": "GI50", "setting": "CAKI-1", "result": "12.1 µM (inactive)"}, {"measurement": "GI50", "setting": "CCRF-CEM", "result": "17.4 µM (inactive)"}, {"measurement": "GI50", "setting": "COLO 205", "result": "> 73.3 µM (inactive)"}, {"measurement": "GI50", "setting": "DU-145", "result": "12.4 µM (inactive)"}, {"measurement": "GI50", "setting": "HCT-15", "result": 40.1, "unit": "µM"}, {"measurement": "GI50", "setting": "HL-60", "result": "< 0.01 µM (active)"}, {"measurement": "GI50", "setting": "HOP-92", "result": "2.45 µM (inactive)"}, {"measurement": "GI50", "setting": "Hs-578T", "result": "5.66 µM (inactive)"}, {"measurement": "GI50", "setting": "IGROV-1", "result": "2.7 µM (inactive)"}, {"measurement": "GI50", "setting": "K562", "result": "12 µM (inactive)"}, {"measurement": "GI50", "setting": "LOX IMVI", "result": "17.1 µM (inactive)"}, {"measurement": "GI50", "setting": "NCI-H226", "result": "21.3 µM (inactive)"}, {"measurement": "GI50", "setting": "RPMI-8226", "result": "39 µM (inactive)"}, {"measurement": "GI50", "setting": "RXF 393", "result": "6.34 µM (inactive)"}, {"measurement": "GI50", "setting": "SK-MEL-2", "result": "2.55 µM (inactive)"}, {"measurement": "GI50", "setting": "SN12C", "result": "13.9 µM (inactive)"}, {"measurement": "GI50", "setting": "SNB-19", "result": "15.7 µM (inactive)"}, {"measurement": "GI50", "setting": "TK-10", "result": "13.5 µM (inactive)"}, {"measurement": "GI50", "setting": "UACC-257", "result": "2.49 µM (inactive)"}]}
{"compound": "O=S1(=O)OC(c2ccc(O)cc2)(c2ccc(O)cc2)c2ccccc21", "note": "[PHENOLSULFONPHTHALEIN]", "values": [{"measurement": "GI50", "setting": "CAKI-1", "result": "> 100 µM (inactive)"}, {"measurement": "GI50", "setting": "CCRF-CEM", "result": "> 100 µM (inactive)"}, {"measurement": "GI50", "setting": "COLO 205", "result": "> 100 µM (inactive)"}, {"measurement": "GI50", "setting": "DU-145", "result": "> 100 µM (inactive)"}, {"measurement": "GI50", "setting": "HCT-15", "result": "> 100", "unit": "µM"}, {"measurement": "GI50", "setting": "HL-60", "result": "> 100 µM (inactive)"}, {"measurement": "GI50", "setting": "HOP-92", "result": "> 100 µM (inactive)"}, {"measurement": "GI50", "setting": "Hs-578T", "result": "> 100 µM (inactive)"}, {"measurement": "GI50", "setting": "IGROV-1", "result": "> 100 µM (inactive)"}, {"measurement": "GI50", "setting": "K562", "result": "> 100 µM (inactive)"}, {"measurement": "GI50", "setting": "LOX IMVI", "result": "> 100 µM (inactive)"}, {"measurement": "GI50", "setting": "NCI-H226", "result": "> 100 µM (inactive)"}, {"measurement": "GI50", "setting": "RPMI-8226", "result": "> 100 µM (inactive)"}, {"measurement": "GI50", "setting": "RXF 393", "result": "> 100 µM (inactive)"}, {"measurement": "GI50", "setting": "SK-MEL-2", "result": "> 100 µM (inactive)"}, {"measurement": "GI50", "setting": "SN12C", "result": "> 100 µM (inactive)"}, {"measurement": "GI50", "setting": "SNB-19", "result": "> 100 µM (inactive)"}, {"measurement": "GI50", "setting": "TK-10", "result": "> 100 µM (inactive)"}, {"measurement": "GI50", "setting": "UACC-257", "result": "> 100 µM (inactive)"}]}
{"compound": "O=c1cc(-c2ccccc2)oc2ccc(Oc3nnnn3-c3ccccc3)cc12", "values": [{"measurement": "GI50", "setting": "CAKI-1", "result": "> 50.1 µM (inactive)"}, {"measurement": "GI50", "setting": "CCRF-CEM", "result": "> 100 µM (inactive)"}, {"measurement": "GI50", "setting": "COLO 205", "result": "> 87.3 µM (inactive)"}, {"measurement": "GI50", "setting": "DU-145", "result": "> 100 µM (inactive)"}, {"measurement": "GI50", "setting": "HCT-15", "result": "> 100", "unit": "µM"}, {"measurement": "GI50", "setting": "HL-60", "result": "> 100 µM (inactive)"}, {"measurement": "GI50", "setting": "HOP-92", "result": "20.1 µM (inactive)"}, {"measurement": "GI50", "setting": "Hs-578T", "result": "28.3 µM (inactive)"}, {"measurement": "GI50", "setting": "IGROV-1", "result": "> 75.5 µM (inactive)"}, {"measurement": "GI50", "setting": "K562", "result": "3.58 µM (inactive)"}, {"measurement": "GI50", "setting": "LOX IMVI", "result": "> 42.7 µM (inactive)"}, {"measurement": "GI50", "setting": "NCI-H226", "result": "25 µM (inactive)"}, {"measurement": "GI50", "setting": "RPMI-8226", "result": "> 100 µM (inactive)"}, {"measurement": "GI50", "setting": "RXF 393", "result": "> 51.5 µM (inactive)"}, {"measurement": "GI50", "setting": "SK-MEL-2", "result": "39.2 µM (inactive)"}, {"measurement": "GI50", "setting": "SN12C", "result": "> 42.3 µM (inactive)"}, {"measurement": "GI50", "setting": "SNB-19", "result": "33.2 µM (inactive)"}, {"measurement": "GI50", "setting": "TK-10", "result": "> 100 µM (inactive)"}, {"measurement": "GI50", "setting": "UACC-257", "result": "> 100 µM (inactive)"}]}
{"compound": "CO/N=C(\\C(=O)[N-]n1cn[n+](CC(=O)OC(C)(C)C)c1)c1csc(NC(c2ccccc2)(c2ccccc2)c2ccccc2)n1", "values": [{"measurement": "GI50", "setting": "CAKI-1", "result": "> 10 µM (inactive)"}, {"measurement": "GI50", "setting": "CCRF-CEM", "result": "> 10 µM (inactive)"}, {"measurement": "GI50", "setting": "COLO 205", "result": "> 10 µM (inactive)"}, {"measurement": "GI50", "setting": "DU-145", "result": "> 10 µM (inactive)"}, {"measurement": "GI50", "setting": "HCT-15", "result": "> 10", "unit": "µM"}, {"measurement": "GI50", "setting": "HL-60", "result": "> 10 µM (inactive)"}, {"measurement": "GI50", "setting": "HOP-92", "result": "> 10 µM (inactive)"}, {"measurement": "GI50", "setting": "Hs-578T", "result": "> 10 µM (inactive)"}, {"measurement": "GI50", "setting": "IGROV-1", "result": "> 10 µM (inactive)"}, {"measurement": "GI50", "setting": "K562", "result": "> 10 µM (inactive)"}, {"measurement": "GI50", "setting": "LOX IMVI", "result": "> 10 µM (inactive)"}, {"measurement": "GI50", "setting": "NCI-H226", "result": "> 10 µM (inactive)"}, {"measurement": "GI50", "setting": "RPMI-8226", "result": "> 10 µM (inactive)"}, {"measurement": "GI50", "setting": "RXF 393", "result": "> 10 µM (inactive)"}, {"measurement": "GI50", "setting": "SK-MEL-2", "result": "> 10 µM (inactive)"}, {"measurement": "GI50", "setting": "SN12C", "result": "> 10 µM (inactive)"}, {"measurement": "GI50", "setting": "SNB-19", "result": "> 10 µM (inactive)"}, {"measurement": "GI50", "setting": "TK-10", "result": "> 10 µM (inactive)"}, {"measurement": "GI50", "setting": "UACC-257", "result": "> 10 µM (inactive)"}]}
